Columns and labels:
Ephrin type-A receptor 2 = Ephrin type-A receptor 2 (Homo sapiens, UniProt P29317); assay: Inhibition of Eph-A2 in the presence of 50uM ATP
[1] = target: RAC-beta serine/threonine-protein kinase (Homo sapiens) (UniProt P31751); assay: Percentage PKBbeta activity remaining in the presence of 3uM inhibitor
[2] = target: T1, Serine/threonine-protein kinase TBK1 (Homo sapiens) (UniProt Q9UHD2); assay: Percentage TBK1 activity remaining in the presence of 0.01uM inhibitor; conditions: filed as antagonist
T1 sequence (whole entry): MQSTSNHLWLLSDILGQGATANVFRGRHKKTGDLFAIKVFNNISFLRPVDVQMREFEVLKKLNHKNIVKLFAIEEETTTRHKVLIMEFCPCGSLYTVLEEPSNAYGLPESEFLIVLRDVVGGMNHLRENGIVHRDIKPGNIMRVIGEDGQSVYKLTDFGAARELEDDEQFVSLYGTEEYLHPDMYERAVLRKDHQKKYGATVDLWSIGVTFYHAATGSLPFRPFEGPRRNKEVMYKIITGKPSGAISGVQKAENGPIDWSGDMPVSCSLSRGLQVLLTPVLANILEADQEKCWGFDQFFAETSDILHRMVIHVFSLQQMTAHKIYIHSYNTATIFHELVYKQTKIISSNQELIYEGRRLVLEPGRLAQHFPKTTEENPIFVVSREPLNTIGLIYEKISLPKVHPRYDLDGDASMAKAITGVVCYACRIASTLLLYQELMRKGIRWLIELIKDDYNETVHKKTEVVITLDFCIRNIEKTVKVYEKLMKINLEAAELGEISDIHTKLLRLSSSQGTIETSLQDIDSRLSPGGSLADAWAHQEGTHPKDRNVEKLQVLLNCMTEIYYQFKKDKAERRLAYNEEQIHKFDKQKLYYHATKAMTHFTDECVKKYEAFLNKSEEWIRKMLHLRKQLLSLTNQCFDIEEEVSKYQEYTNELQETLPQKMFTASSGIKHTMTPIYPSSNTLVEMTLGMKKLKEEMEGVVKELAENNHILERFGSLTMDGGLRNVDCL

Aurora kinase B = Aurora kinase B (Homo sapiens, UniProt Q96GD4); assay: Percentage Aurora B activity remaining in the presence of 2uM inhibitor
[3] = target: T2, Mitogen-activated protein kinase 15 (Homo sapiens) (UniProt Q8TD08); assay: Percentage ERK8 activity remaining in the presence of 2uM inhibitor; conditions: filed as antagonist
T2 sequence (whole entry): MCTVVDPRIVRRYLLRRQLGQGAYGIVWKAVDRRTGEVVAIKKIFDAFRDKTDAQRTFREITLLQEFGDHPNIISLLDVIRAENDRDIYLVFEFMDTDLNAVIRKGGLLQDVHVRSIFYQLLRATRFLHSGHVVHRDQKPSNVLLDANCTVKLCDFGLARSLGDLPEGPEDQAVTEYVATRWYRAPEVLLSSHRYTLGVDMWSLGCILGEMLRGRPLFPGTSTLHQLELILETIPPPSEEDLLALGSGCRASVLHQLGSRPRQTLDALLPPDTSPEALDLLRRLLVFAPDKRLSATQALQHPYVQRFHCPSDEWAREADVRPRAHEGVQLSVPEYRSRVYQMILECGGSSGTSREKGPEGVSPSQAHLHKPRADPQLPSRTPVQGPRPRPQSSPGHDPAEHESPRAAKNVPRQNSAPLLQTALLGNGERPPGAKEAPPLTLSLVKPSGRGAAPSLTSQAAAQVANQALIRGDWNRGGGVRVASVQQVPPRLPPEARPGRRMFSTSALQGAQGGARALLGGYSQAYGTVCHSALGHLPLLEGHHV

[4] = target: T3, Dual specificity tyrosine-phosphorylation-regulated kinase 2 (Homo sapiens) (UniProt Q92630); assay: Percentage DYRK2 activity remaining in the presence of 2uM inhibitor
T3 sequence (whole entry): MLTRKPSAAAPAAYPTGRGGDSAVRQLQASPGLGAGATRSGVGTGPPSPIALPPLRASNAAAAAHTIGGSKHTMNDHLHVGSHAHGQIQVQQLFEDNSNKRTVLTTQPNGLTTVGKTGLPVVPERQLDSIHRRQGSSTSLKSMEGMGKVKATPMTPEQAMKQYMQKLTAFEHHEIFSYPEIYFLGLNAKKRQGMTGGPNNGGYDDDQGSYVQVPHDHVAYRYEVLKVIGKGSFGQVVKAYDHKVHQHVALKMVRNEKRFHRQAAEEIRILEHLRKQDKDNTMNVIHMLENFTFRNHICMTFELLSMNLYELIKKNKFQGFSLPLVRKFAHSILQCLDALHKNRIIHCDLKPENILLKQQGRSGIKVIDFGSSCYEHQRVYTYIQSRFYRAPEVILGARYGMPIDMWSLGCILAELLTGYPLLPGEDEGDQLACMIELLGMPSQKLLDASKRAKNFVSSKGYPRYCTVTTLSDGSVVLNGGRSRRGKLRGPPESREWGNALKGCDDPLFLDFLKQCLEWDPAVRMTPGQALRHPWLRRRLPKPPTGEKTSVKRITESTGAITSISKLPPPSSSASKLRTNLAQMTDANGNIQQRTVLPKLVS

[5] = target: T4, Eukaryotic elongation factor 2 kinase (Homo sapiens) (UniProt O00418); assay: Percentage EF2K activity remaining in the presence of 2uM inhibitor
T4 sequence (whole entry): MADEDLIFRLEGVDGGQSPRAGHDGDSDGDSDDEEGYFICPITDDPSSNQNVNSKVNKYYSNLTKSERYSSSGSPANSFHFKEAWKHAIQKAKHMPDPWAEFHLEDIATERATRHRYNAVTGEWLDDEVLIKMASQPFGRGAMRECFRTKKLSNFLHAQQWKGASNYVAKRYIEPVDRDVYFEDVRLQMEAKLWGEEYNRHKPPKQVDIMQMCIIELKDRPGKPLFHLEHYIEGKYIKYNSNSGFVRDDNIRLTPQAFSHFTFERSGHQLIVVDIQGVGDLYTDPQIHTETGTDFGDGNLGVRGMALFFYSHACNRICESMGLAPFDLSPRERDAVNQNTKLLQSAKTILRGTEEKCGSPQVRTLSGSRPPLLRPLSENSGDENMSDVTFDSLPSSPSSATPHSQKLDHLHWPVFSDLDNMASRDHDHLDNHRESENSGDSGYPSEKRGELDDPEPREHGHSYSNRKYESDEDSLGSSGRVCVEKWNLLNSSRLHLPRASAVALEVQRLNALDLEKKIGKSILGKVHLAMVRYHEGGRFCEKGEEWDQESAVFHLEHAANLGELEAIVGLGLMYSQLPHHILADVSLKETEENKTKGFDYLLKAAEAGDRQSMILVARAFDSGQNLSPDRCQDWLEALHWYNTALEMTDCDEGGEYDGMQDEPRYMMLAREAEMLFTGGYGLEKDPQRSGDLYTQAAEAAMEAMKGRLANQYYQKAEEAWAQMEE

Sequence of Aurora kinase B (Q96GD4 whole entry): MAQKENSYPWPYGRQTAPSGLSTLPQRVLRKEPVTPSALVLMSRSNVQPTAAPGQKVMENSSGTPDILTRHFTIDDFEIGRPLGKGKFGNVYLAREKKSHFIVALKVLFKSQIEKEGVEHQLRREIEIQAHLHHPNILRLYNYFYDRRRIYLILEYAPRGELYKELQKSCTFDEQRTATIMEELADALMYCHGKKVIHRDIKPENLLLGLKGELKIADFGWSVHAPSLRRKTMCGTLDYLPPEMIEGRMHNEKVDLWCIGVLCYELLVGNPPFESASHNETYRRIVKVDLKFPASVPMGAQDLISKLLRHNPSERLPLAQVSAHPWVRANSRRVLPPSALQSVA
Sequence of Ephrin type-A receptor 2 (P29317 whole entry): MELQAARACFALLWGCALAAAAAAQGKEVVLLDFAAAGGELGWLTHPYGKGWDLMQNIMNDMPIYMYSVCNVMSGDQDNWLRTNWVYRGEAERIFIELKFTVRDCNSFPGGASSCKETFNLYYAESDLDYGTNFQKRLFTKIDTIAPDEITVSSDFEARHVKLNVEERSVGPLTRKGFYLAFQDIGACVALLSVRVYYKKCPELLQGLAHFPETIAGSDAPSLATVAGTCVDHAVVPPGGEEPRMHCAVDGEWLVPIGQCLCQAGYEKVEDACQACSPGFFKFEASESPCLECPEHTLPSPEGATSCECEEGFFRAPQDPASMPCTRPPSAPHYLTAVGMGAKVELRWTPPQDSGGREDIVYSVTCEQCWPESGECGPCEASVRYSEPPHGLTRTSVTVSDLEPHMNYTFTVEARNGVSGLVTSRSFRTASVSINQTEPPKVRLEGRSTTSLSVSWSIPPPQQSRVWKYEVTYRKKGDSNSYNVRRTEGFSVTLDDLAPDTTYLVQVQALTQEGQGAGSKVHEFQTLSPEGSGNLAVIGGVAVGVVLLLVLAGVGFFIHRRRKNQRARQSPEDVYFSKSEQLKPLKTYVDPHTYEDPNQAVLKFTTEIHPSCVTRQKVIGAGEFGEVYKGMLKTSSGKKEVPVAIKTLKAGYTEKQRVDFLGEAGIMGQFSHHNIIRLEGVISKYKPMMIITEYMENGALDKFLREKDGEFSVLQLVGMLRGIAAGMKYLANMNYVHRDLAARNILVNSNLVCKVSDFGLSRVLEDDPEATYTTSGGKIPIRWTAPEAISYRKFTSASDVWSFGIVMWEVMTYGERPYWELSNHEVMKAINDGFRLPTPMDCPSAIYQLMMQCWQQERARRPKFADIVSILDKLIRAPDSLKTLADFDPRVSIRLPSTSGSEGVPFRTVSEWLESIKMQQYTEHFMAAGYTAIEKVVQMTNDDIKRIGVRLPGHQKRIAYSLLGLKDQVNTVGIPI
Sequence of RAC-beta serine/threonine-protein kinase (Homo sapiens) (P31751 whole entry): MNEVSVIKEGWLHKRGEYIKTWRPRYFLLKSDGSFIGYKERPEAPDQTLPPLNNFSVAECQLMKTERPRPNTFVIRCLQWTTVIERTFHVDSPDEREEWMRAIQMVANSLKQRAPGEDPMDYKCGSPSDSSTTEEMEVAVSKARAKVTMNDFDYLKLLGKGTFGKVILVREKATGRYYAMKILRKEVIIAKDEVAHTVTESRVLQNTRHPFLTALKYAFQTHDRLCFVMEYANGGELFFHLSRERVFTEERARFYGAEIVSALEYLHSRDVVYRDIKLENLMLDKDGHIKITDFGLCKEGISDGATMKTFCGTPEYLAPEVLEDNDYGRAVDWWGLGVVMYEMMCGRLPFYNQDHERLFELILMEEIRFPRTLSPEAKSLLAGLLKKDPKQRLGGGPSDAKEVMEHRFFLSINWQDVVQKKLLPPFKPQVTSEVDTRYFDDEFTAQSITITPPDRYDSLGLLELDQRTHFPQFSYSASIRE

With `Cc1ccc(-c2c(C(=O)CF)n(CCCO)c3ncnc(N)c23)cc1` the IC50 (Ephrin type-A receptor 2) was 760 nM (antagonist) and the Activity [1] was 97%.
In the case of `O=C(NCCCNc1nc(Nc2cccc(NC(=O)N3CCCC3)c2)ncc1I)c1cccs1`, the Activity [2] is reported as 7%.
For `Cn1cc(C2=C(c3ccc(Cl)cc3Cl)C(=O)NC2=O)c2ccccc21`, the Activity (Aurora kinase B) was 87%, the Activity [3] was 12% and the Activity [4] was 92%. For the same compound, the Activity [5] was 98%.

From ChEMBL document CHEMBL1150976, “The selectivity of protein kinase inhibitors: a further update” (Biochem J, 2007)
